Test results as given in ChEMBL document CHEMBL3751720, “Investigating molecular dynamics-guided lead optimization of EGFR inhibitors” (Bioorg Med Chem, 2016).

Each molecule was assayed against Epidermal growth factor receptor (Homo sapiens) (UniProt P00533) (assay: Inhibition of wild-type EGFR (unknown origin) assessed as enzyme residual activity at 10 uM for 60 mins by microplate scintillation counter in presence of [gamma-33P]-ATP).
Epidermal growth factor receptor (Homo sapiens), sequence (P00533 whole entry): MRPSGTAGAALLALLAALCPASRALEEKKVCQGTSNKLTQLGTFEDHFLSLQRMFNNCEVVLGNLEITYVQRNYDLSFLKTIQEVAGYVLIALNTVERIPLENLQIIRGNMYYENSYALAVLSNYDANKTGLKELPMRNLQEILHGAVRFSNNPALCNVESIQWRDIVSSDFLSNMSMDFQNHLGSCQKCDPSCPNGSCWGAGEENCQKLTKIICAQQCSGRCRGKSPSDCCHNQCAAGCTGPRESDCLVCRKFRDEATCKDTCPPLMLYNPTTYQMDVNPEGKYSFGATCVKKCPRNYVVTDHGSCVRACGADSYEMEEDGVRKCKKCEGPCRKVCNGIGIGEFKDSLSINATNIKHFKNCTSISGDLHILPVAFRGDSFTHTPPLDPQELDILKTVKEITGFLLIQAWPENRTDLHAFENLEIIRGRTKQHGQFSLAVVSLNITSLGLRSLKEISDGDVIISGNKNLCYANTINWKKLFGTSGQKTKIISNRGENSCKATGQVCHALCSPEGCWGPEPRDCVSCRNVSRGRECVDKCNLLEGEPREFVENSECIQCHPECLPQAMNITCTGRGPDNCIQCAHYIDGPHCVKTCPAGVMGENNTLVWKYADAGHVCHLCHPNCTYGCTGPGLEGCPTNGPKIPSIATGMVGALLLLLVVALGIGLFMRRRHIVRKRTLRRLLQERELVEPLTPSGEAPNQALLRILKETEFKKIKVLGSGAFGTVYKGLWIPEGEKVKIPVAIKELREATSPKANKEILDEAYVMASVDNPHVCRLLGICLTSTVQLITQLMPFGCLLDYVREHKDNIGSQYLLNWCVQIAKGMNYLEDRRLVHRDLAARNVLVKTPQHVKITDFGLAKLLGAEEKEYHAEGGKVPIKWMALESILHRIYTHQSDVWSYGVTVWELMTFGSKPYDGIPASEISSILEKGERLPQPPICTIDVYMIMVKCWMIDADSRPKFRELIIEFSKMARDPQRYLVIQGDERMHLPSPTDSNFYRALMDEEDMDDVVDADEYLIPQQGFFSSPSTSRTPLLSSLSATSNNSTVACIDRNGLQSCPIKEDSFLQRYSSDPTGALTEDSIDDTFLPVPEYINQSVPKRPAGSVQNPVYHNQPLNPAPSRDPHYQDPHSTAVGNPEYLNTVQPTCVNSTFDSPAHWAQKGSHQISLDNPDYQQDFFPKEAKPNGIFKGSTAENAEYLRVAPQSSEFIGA
In the case of `Cn1c(=O)c(-c2ccccc2)cc2c(N)nc(Nc3ccccc3)nc21`, the Activity is reported as 49%. `Cn1c(=O)c(-c2c(Cl)cccc2Cl)cc2c(N)nc(Nc3ccccc3)nc21` gave an Activity of 14%. `Cn1c(=O)c(-c2c(Br)cccc2Br)cc2c(N)nc(Nc3ccccc3)nc21` showed an Activity of 3%. `Cn1c(=O)c(-c2c(F)cccc2C(F)(F)F)cc2c(N)nc(Nc3ccccc3)nc21` gave an Activity of 61%.
